Experimental data reported in paper PMC11191101, “Investigation of Newly Synthesized Fluorinated Isatin-Hydrazones by In Vitro Antiproliferative Activity, Molecular Docking, ADME Analysis, and e-Pharmacophore Modeling” (ACS Omega, 2024).
“Also recorded” adds a separate entry of the source.

Tests used:
[1] = tested on: A549 human lung epithelial carcinoma cell line; test: MTT cytotoxicity, A549 lung cancer cells; assay type: cell-based; conditions: for cytotoxic effect on A549 lung cancer cell line (in words) / selectivity index (SI), HEK-293T IC50 divided by A549 IC50: 72 h; for cytotoxic effect on A549 lung cancer cell line (in words): up to 200 μM; for IC50: MTT, 72 h, 200, 100, 50, 25 μM tested; for selectivity index (SI), HEK-293T IC50 divided by A549 IC50: IC50 >200 taken as 200
Experimental: (§1) Compounds (1–15) were screened in two cancer and normal cell lines at concentrations of 200, 100, 50, and 25 μM for 72 h.
(§2) This section of the study was performed following the procedure described in our previous study.[51],[52] The human lung cancer cell line (A549; ATCC CCL-185), human liver cancer cell line (HepG2; ATCC HB-8065), and human normal embryonic kidney cell line (HEK-293T) were cultured in high-glucose Dulbecco’s modified Eagle’s medium supplemented with 10% fetal bovine serum and 1% glutamax. Cells were seeded at a density of 5 × 10^3 cells/well in sterile 96-well plates and incubated for 24 h. Following incubation, the cells were exposed to the prepared compounds (1–15) and cisplatin at 200, 100, 50, and 25 μM concentrations for 72 h. After the incubation period, the medium in the plates was carefully removed and the prepared MTT solution was added to each well of the plates. The plates were incubated for 2 h in an incubator. Absorbance was measured using an Epoch 2 ELISA plate reader at 590 nm. The IC50 values were calculated using GraphPad Prism Software version 5.

[2] = tested on: HepG2 human liver epithelial carcinoma cell line; test: MTT cytotoxicity, HepG2 liver cancer cells; assay type: cell-based; conditions: for IC50: Homo sapiens, HepG2, MTT, 72 h, 200, 100, 50, 25 μM tested; for cytotoxic effect on HepG2 liver cancer cell line (in words) / selectivity index (SI), HEK-293T IC50 / HepG2 IC50: 72 h; for cytotoxic effect on HepG2 liver cancer cell line (in words): up to 200 μM; for selectivity index (SI), HEK-293T IC50 / HepG2 IC50: IC50 >200 taken as 200
Experimental: as §1, §2

[3] = tested on: HEK-293T human normal embryonic kidney cell line; test: MTT toxicity, HEK-293T normal cells; assay type: cell-based; conditions: 72 h; for IC50: MTT, normal cell line, 200, 100, 50, 25 μM tested; for toxic effect on healthy HEK-293T cells (in words): up to 200 μM
Experimental: as §1, §2

| melting point | SMILES | cytotoxic effect on A549 lung cancer cell line (in words) [1] | IC50 ([1]; Homo sapiens, A549) | IC50 [2] | IC50 ([3]; Homo sapiens, HEK-293T) | selectivity index (SI), HEK-293T IC50 divided by A549 IC50 [1] | toxic effect on healthy HEK-293T cells (in words) [3] | cytotoxic effect on HepG2 liver cancer cell line (in words) [2] | selectivity index (SI), HEK-293T IC50 / HepG2 IC50 [2] | IC50 [1] | IC50 [3] |
| --- | --- | --- | --- | --- | --- | --- | --- | --- | --- | --- | --- |
| 203 to 204 °C | NN=C1C(=O)Nc2ccc(F)cc21 [Compound 1, 5-Fluoro-3-hydrazonoindolin-2-one] | not active | > 200 µM | > 200 µM | > 200 µM | – | – | – | – | – | – |
| 229 to 230 °C | O=C1Nc2ccc(F)cc2C1=NN=Cc1ccccc1 [Compound 2, 5-Fluoro-3-{[benzylidene]hydrazinylidene}indolin-2-one] | not active | > 200 µM | > 200 µM | > 200 µM | – | – | – | – | – | – |
| 262 to 263 °C | O=C1Nc2ccc(F)cc2C1=NN=Cc1ccc(Br)cc1 [Compound 3, 5-Fluoro-3-{[4-bromobenzylidene]hydrazinylidene}indolin-2-one] | cytotoxic effect | 186 µM | > 200 µM | 25 µM | 0.13 | highly toxic effects | – | – | – | – |
| 257 to 258 °C | O=C1Nc2ccc(F)cc2C1=NN=Cc1ccc(Cl)cc1 [Compound 4, 5-Fluoro-3-{[4-chlorobenzylidene]hydrazinylidene}indolin-2-one] | not active | > 200 µM | > 200 µM | 29.3 µM | – | toxic effect; also recorded: highly toxic effects | – | – | – | – |
| 246 to 248 °C | O=C1Nc2ccc(F)cc2C1=NN=Cc1ccc(F)cc1 [Compound 5, 5-Fluoro-3-{[4-fluorobenzylidene]hydrazinylidene}indolin-2-one] | not active | > 200 µM | 108 µM | 193 µM | – | did not show high toxicity | cytotoxic effects | 1.78 | – | – |
| 241 to 242 °C | Cc1ccc(C=NN=C2C(=O)Nc3ccc(F)cc32)cc1 [Compound 6, 5-Fluoro-3-{[4-methylbenzylidene]hydrazinylidene}indolin-2-one] | not active | > 200 µM | > 200 µM | 140 µM | – | toxic effect | – | – | – | – |
| 247 to 248 °C | COc1ccc(C=NN=C2C(=O)Nc3ccc(F)cc32)cc1 [Compound 7, 5-Fluoro-3-{[4-methoxybenzylidene]hydrazinylidene}indolin-2-one] | not active | > 200 µM | 153 µM | 197 µM | – | – | cytotoxic effects | 1.29 | – | – |
| 249 to 251 °C | O=C1Nc2ccc(F)cc2C1=NN=Cc1ccc([N+](=O)[O-])cc1 [Compound 8, 5-Fluoro-3-{[4-nitrobenzylidene]hydrazinylidene}indolin-2-one] | cytotoxic effect | 42.4 µM | 48.4 µM | 6.04 µM | 0.14 | – | cytotoxic effects | 0.12 | – | – |
| 252 to 253 °C | O=C1Nc2ccc(F)cc2C1=NN=Cc1ccccc1O [Compound 9, 5-Fluoro-3-{[2-hydroxybenzylidene]hydrazinylidene}indolin-2-one] | not active | > 200 µM | > 200 µM | 142 µM | – | toxic effect | – | – | – | – |
| 260 to 261 °C | O=C1Nc2ccc(F)cc2C1=NN=Cc1cccc(O)c1 [Compound 10, 5-Fluoro-3-{[3-hydroxybenzylidene]hydrazinylidene}indolin-2-one] | cytotoxic effect | 180 µM | 166 µM | 87 µM | 0.48 | – | cytotoxic effects | 0.52 | – | – |
| 275 to 276 °C | O=C1Nc2ccc(F)cc2C1=NN=Cc1ccc(O)cc1 [Compound 11, 5-Fluoro-3-{[4-hydroxybenzylidene]hydrazinylidene}indolin-2-one] | not active | > 200 µM | > 200 µM | > 200 µM | – | – | – | – | – | – |
| 244 to 246 °C | COc1cccc(C=NN=C2C(=O)Nc3ccc(F)cc32)c1O [Compound 12, 5-Fluoro-3-{[2-hydroxy-3-methoxybenzylidene]hydrazinylidene}indolin-2-one] | cytotoxic effect | 150 µM | > 200 µM | > 200 µM | > 1.33 | – | – | – | – | – |
| 257 to 258 °C | COc1ccc(C=NN=C2C(=O)Nc3ccc(F)cc32)c(O)c1 [Compound 13, 5-Fluoro-3-{[2-hydroxy-4-methoxybenzylidene]hydrazinylidene}indolin-2-one] | not active | > 200 µM | > 200 µM | > 200 µM | – | – | – | – | – | – |
| 263 to 264 °C | COc1ccc(C=NN=C2C(=O)Nc3ccc(F)cc32)cc1O [Compound 14, 5-Fluoro-3-{[3-hydroxy-4-methoxybenzylidene]hydrazinylidene}indolin-2-one] | cytotoxic effect | 115 µM | > 200 µM | > 200 µM | > 1.73 | – | – | – | – | – |
| 232 to 233 °C | COc1cc(C=NN=C2C(=O)Nc3ccc(F)cc32)ccc1O [Compound 15, 5-Fluoro-3-{[4-hydroxy-3-methoxybenzylidene]hydrazinylidene}indolin-2-one] | not active | > 200 µM | > 200 µM | > 200 µM | – | – | – | – | – | – |
| – | N.N.[Cl][Pt][Cl] [cisplatin, reference compound] | – | – | – | – | – | – | – | – | 4.19 µM | 7.48 µM |
